Data published in PMC10337138 (Acta Neuropathologica Communications, 2023).

What was measured:
Conditions in all cases: 1 mM ATP; inhibitor
BRSK1 = BRSK1 (Homo sapiens, UniProt Q8TDC3)
Method: (§1) Kinase selectivity panel Kinome profiling was conducted by AssayQuant Technologies (Marlboro, MA) using Sox chromophore technology and Sox-based peptide substrates developed for human kinases in a 384-well format. Compounds were tested at 1 µM in the presence of 1 mM ATP.

LYNB = biological target: T1, LYNB (Homo sapiens, UniProt P07948)
T1 construct: gene LYN
T1 sequence (P07948 whole entry): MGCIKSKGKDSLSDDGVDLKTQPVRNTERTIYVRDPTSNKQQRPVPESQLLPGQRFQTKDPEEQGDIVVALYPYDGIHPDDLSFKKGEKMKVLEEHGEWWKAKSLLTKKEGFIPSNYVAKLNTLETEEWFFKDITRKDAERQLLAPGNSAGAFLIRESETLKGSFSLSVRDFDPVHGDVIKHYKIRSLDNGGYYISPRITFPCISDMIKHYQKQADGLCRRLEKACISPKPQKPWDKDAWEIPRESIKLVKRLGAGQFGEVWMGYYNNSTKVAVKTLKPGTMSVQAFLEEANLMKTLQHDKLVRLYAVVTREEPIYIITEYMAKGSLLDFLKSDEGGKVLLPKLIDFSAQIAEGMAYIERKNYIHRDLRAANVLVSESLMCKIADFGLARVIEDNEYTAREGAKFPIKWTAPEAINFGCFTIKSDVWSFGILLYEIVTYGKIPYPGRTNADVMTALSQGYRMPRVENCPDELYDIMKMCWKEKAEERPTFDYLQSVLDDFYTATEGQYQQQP
Method: as §1

MAP2K2/MEK2 = MAP2K2/MEK2 (Homo sapiens, UniProt P36507)
Method: as §1

KSR2 = KSR2 (Homo sapiens, UniProt Q6VAB6)
Method: as §1

DAPK1 = DAPK1 (Homo sapiens, UniProt P53355)
Method: as §1

PDHK3 = biological target: T2, PDHK3 (Homo sapiens, UniProt Q15120)
T2 construct: gene PDK3
Method: as §1

TOPK = biological target: T3, TOPK (Homo sapiens, UniProt Q96KB5)
T3 construct: gene PBK
T3 sequence (Q96KB5 whole entry): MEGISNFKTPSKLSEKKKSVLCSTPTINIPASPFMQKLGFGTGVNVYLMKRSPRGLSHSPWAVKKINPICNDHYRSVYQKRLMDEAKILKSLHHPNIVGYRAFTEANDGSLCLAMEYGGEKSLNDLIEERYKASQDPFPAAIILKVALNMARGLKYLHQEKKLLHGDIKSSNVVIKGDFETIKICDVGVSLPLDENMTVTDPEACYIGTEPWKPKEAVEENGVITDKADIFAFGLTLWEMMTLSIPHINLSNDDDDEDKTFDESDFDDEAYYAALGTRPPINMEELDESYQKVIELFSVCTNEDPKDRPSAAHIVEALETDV
Method: as §1

BUB1 = BUB1 (Homo sapiens, UniProt O43683)
Method: as §1

PINK1 = PINK1 (Homo sapiens, UniProt Q9BXM7)
Chain of PINK1 (Q9BXM7 whole entry): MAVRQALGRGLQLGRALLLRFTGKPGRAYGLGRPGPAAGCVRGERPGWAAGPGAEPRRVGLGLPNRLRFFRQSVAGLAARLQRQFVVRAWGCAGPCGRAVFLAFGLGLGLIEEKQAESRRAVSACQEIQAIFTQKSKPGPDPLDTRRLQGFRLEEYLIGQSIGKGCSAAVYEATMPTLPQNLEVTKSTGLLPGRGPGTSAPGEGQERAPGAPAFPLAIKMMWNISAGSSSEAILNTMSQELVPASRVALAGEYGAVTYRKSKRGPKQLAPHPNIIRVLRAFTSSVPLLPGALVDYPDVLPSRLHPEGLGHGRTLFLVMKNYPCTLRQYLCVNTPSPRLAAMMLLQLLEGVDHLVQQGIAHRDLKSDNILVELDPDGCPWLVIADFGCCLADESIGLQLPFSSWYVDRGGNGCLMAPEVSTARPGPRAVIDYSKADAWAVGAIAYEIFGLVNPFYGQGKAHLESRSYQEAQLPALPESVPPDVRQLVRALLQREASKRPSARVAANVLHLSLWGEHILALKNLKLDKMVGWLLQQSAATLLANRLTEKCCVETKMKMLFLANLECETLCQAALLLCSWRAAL
Method: as §1

GRK1 = GRK1 (Homo sapiens, UniProt Q15835)
Method: as §1

CDK9/K = CDK9/K (Homo sapiens, UniProt P50750)
Method: as §1

MAP3K6/ASK2 = MAP3K6/ASK2 (Homo sapiens, UniProt O95382)
Method: as §1

CSNK1E/CK1E = CSNK1E/CK1E (Homo sapiens, UniProt P49674)
Method: as §1

ERBB2/HER2 = ERBB2/HER2 (Homo sapiens, UniProt P04626)
Method: as §1

ERBB4/HER4 = ERBB4/HER4 (Homo sapiens, UniProt Q15303)
Method: as §1

MAPKAPK2/MK2 = MAPKAPK2/MK2 (Homo sapiens, UniProt P49137)
Method: as §1

PAK2 = PAK2 (Homo sapiens, UniProt Q13177)
Method: as §1

PRKAA2/AMPK221 = PRKAA2/AMPK221 (Homo sapiens, UniProt P54646)
Chain of PRKAA2/AMPK221 (P54646 whole entry): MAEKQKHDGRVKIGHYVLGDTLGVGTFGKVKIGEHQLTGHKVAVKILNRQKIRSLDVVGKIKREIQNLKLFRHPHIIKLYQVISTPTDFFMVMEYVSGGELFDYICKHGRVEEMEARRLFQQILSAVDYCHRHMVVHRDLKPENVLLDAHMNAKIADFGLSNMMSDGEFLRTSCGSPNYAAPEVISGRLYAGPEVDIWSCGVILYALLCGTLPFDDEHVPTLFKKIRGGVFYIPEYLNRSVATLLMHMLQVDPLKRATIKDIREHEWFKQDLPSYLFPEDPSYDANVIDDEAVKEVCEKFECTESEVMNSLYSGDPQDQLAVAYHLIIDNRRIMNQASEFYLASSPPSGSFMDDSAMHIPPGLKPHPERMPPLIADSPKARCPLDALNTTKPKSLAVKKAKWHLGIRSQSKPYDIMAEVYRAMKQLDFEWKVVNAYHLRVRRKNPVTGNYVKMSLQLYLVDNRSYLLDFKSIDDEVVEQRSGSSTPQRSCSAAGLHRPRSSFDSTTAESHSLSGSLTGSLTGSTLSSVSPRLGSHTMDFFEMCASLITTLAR
Chain of PRKAA2/AMPK221 (O43741 whole entry partner): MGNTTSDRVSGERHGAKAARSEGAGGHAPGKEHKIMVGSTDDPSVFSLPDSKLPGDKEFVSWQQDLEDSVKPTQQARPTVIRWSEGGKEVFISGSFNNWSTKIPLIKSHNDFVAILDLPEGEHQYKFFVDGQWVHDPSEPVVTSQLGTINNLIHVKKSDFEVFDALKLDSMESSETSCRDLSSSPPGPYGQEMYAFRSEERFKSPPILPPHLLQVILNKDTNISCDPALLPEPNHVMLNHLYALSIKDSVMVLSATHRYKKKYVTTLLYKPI
Chain of PRKAA2/AMPK221 (P54619 whole entry partner): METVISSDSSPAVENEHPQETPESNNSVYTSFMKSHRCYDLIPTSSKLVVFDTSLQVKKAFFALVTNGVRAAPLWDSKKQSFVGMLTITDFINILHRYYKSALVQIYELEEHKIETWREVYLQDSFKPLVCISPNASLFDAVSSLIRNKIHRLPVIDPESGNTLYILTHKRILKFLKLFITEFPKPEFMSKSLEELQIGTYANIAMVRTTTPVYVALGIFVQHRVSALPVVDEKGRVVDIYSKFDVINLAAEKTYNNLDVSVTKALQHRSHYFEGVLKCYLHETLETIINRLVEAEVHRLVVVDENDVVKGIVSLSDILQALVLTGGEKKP
Method: as §1

CSK = CSK (Homo sapiens, UniProt P41240)
Chain of CSK (P41240 whole entry): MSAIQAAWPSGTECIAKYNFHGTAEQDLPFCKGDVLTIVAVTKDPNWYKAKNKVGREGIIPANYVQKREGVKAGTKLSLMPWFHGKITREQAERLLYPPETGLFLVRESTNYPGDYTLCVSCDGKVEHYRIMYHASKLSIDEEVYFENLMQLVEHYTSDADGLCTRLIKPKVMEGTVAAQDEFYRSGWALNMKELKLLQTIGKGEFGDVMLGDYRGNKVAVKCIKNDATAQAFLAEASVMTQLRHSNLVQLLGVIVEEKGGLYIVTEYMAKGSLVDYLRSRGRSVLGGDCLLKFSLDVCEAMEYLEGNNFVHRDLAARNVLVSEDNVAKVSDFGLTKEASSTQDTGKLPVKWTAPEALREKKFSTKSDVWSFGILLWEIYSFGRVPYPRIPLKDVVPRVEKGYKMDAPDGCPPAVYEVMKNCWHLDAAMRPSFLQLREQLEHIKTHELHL
Method: as §1

RPS6KA3/RSK2 = RPS6KA3/RSK2 (Homo sapiens, UniProt P51812)
Chain of RPS6KA3/RSK2 (P51812 whole entry): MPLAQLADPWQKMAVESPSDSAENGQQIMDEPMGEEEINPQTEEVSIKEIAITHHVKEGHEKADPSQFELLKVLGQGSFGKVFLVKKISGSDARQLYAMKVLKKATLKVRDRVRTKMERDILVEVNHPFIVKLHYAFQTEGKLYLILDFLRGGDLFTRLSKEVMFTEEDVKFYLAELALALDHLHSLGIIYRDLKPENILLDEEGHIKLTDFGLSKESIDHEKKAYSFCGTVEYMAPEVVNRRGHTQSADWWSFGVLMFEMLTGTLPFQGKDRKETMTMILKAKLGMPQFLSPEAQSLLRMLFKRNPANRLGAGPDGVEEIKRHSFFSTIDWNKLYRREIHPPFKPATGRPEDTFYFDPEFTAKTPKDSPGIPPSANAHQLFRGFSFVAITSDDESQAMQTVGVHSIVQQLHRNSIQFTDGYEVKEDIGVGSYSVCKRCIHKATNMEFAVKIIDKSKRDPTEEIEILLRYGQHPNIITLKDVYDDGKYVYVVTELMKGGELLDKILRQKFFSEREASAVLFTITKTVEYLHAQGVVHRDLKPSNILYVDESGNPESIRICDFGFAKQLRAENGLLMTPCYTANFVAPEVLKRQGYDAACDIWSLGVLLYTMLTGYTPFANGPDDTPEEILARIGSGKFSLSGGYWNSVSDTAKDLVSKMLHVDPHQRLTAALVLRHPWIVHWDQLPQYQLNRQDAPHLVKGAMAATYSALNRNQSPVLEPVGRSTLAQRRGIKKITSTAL
Method: as §1

DMPK1 = biological target: T4, DMPK1 (Homo sapiens, UniProt Q09013)
T4 construct: gene DMPK
T4 sequence (Q09013 whole entry): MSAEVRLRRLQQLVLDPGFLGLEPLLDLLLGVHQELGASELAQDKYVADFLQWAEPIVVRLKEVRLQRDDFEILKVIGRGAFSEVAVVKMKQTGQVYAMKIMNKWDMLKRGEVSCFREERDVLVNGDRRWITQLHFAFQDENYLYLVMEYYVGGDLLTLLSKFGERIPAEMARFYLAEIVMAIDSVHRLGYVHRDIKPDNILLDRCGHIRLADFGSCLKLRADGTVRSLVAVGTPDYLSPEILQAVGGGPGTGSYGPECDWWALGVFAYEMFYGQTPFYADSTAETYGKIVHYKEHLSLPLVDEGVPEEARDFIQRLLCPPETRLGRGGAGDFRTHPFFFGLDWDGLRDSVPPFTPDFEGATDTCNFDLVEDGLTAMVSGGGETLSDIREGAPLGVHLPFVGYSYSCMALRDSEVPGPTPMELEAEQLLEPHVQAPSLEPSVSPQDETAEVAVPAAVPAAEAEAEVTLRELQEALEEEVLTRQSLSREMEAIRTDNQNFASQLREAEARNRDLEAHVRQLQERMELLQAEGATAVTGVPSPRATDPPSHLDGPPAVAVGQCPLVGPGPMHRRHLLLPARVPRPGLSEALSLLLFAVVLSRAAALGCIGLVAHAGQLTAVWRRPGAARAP
Method: as §1

PRKCA/PKCA = PRKCA/PKCA (Homo sapiens, UniProt P17252)
Method: as §1

EPHA2 = EPHA2 (Homo sapiens, UniProt P29317)
Method: as §1

CSNK2A2/CK2A2 = CSNK2A2/CK2A2 (Homo sapiens, UniProt P19784)
Method: as §1

AKT1 = AKT1 (Homo sapiens, UniProt P31749)
Method: as §1

PRKCQ/PKCQ = PRKCQ/PKCQ (Homo sapiens, UniProt Q04759)
Method: as §1

GRK4 = GRK4 (Homo sapiens, UniProt P32298)
Method: as §1

PLK1 = PLK1 (Homo sapiens, UniProt P53350)
Method: as §1

PRKD3 = PRKD3 (Homo sapiens, UniProt O94806)
Method: as §1

MAP3K14 = MAP3K14 (Homo sapiens, UniProt Q99558)
Method: as §1

MAPK3/ERK1 = MAPK3/ERK1 (Homo sapiens, UniProt P27361)
Chain of MAPK3/ERK1 (P27361 whole entry): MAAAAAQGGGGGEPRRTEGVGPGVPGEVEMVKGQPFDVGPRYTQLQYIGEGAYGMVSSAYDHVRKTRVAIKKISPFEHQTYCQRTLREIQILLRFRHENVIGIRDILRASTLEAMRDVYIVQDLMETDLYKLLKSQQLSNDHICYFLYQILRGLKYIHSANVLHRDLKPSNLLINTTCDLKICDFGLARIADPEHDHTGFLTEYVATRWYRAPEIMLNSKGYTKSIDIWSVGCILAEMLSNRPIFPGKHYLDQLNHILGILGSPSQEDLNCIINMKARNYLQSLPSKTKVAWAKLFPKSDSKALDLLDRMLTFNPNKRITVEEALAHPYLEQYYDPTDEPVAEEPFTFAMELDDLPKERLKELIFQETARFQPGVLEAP
Method: as §1

PLK3 = PLK3 (Homo sapiens, UniProt Q9H4B4)
Method: as §1

ABL2 = ABL2 (Homo sapiens, UniProt P42684)
Method: as §1

EPHB3 = EPHB3 (Homo sapiens, UniProt P54753)
Method: as §1

CDK9/T1 = CDK9/T1 (Homo sapiens, UniProt P50750)
Method: as §1

EIF2AK1/HRI = EIF2AK1/HRI (Homo sapiens, UniProt Q9BQI3)
Method: as §1

MYLK/MLCK = MYLK/MLCK (Homo sapiens, UniProt Q15746)
Method: as §1

CAMK2D = CAMK2D (Homo sapiens, UniProt Q13557)
Method: as §1

C=CC(=O)N1CCC[C@@H](n2nc(-c3ccc(Oc4ccccc4)cc3)c3c(N)ncnc32)C1 [Ibrutinib]
1 µM GBD00276 (ibrutinib), % inhibition (BRSK1): 2.387% | 1 µM GBD00276 (ibrutinib), % inhibition (LYNB): 40.58% | 1 µM GBD00276 (ibrutinib), % inhibition (MAP2K2/MEK2): -23.38% | 1 µM GBD00276 (ibrutinib), % inhibition (KSR2): 3.265% | 1 µM GBD00276 (ibrutinib), % inhibition (DAPK1): 0.3006% | 1 µM GBD00276 (ibrutinib), % inhibition (PDHK3): 2.509% | 1 µM GBD00276 (ibrutinib), % inhibition (TOPK): -5.913% | 1 µM GBD00276 (ibrutinib), % inhibition (BUB1): 26.62% | 1 µM GBD00276 (ibrutinib), % inhibition (PINK1): -6.021% | 1 µM GBD00276 (ibrutinib), % inhibition (GRK1): 10.14% | 1 µM GBD00276 (ibrutinib), % inhibition (CDK9/K): -8.235% | 1 µM GBD00276 (ibrutinib), % inhibition (MAP3K6/ASK2): 25.05% | 1 µM GBD00276 (ibrutinib), % inhibition (CSNK1E/CK1E): 22.68% | 1 µM GBD00276 (ibrutinib), % inhibition (ERBB2/HER2): 98.1% | 1 µM GBD00276 (ibrutinib), % inhibition (ERBB4/HER4): 98.2% | 1 µM GBD00276 (ibrutinib), % inhibition (MAPKAPK2/MK2): 8.023% | 1 µM GBD00276 (ibrutinib), % inhibition (PAK2): 28.3% | 1 µM GBD00276 (ibrutinib), % inhibition (PRKAA2/AMPK221): 4.802% | 1 µM GBD00276 (ibrutinib), % inhibition (CSK): 61.63% | 1 µM GBD00276 (ibrutinib), % inhibition (RPS6KA3/RSK2): 28.78% | 1 µM GBD00276 (ibrutinib), % inhibition (DMPK1): -2.197% | 1 µM GBD00276 (ibrutinib), % inhibition (PRKCA/PKCA): 14.87% | 1 µM GBD00276 (ibrutinib), % inhibition (EPHA2): 9.007% | 1 µM GBD00276 (ibrutinib), % inhibition (CSNK2A2/CK2A2): -24.31% | 1 µM GBD00276 (ibrutinib), % inhibition (AKT1): 16.85% | 1 µM GBD00276 (ibrutinib), % inhibition (PRKCQ/PKCQ): 12.04% | 1 µM GBD00276 (ibrutinib), % inhibition (GRK4): 18.83% | 1 µM GBD00276 (ibrutinib), % inhibition (PLK1): 6.704% | 1 µM GBD00276 (ibrutinib), % inhibition (PRKD3): 1.376% | 1 µM GBD00276 (ibrutinib), % inhibition (MAP3K14): -11.44% | 1 µM GBD00276 (ibrutinib), % inhibition (MAPK3/ERK1): 2.161% | 1 µM GBD00276 (ibrutinib), % inhibition (PLK3): 16.45% | 1 µM GBD00276 (ibrutinib), % inhibition (ABL2): -32.13% | 1 µM GBD00276 (ibrutinib), % inhibition (EPHB3): 8.156% | 1 µM GBD00276 (ibrutinib), % inhibition (CDK9/T1): -10.19% | 1 µM GBD00276 (ibrutinib), % inhibition (EIF2AK1/HRI): -3.537% | 1 µM GBD00276 (ibrutinib), % inhibition (MYLK/MLCK): -5.288% | 1 µM GBD00276 (ibrutinib), % inhibition (CAMK2D): 12.33%
